Laboratory results taken from EP4714948A1, “COMPOUND USED FOR EGFR PROTEIN DEGRADATION, AND USE THEREOF” (TYK Medicines, Inc., priority 2023, dated 2024).

Key:
[1] = test system: H1975; assay: Cell antiproliferative assay (CTG, 72 h); type: cell-based; settings: Homo sapiens, NCI-H1975, H1975 (EGFR T790M/L858R)
Experimental: (§1) H1975 has EGFR T790M/L858R dual mutation, PC-9 has EGFR exon 19 deletion mutation, and HCC827 has exon 19 deletion mutation. CellCounting Lite 2.0, Trypsin EDTA, 37 °C CO2 incubator, cell counter, EnVision Serial No.1050454.
(§2) • (A) Trypsin EDTA was used to digest log-phase cells, medium was added to terminate the digestion reaction, and a cell suspension was prepared by blowing and mixing with a pipette. • (B) Cell concentration was determined using Vi-cell, and a suspension of 15,000-25,000 cells per milliliter was made depending on the purpose of the experiment and the characteristics of the cells. • (C) After the cell suspension was ready, it was gently mixed and each well was added with 100µL so that the cell density to be tested was 1,500- 2,500 per well.
(§3) • A) About 2 mg of compound was weighed, and the volume of DMSO required was calculated according to the formula: compound mass (mg)*compound purity (%)/compound molecular weight*1000. • (B) The inoculated cell culture plates were incubated in an incubator. About 24 hours later, compounds were added at gradient concentrations. • (C) 10mM of compound reservoir solution was diluted to […] with medium, and […] of the compound solution was added sequentially to the second column of the deep-well plate, and […] of medium containing 0.5% DMSO was added to the third to eleventh columns. • D) Gradient dilution: 125 µl of solution was pipetted from the second column and added to the third column, after mixing; another 125 µl of solution was pipetted from the third column and added to the fourth column, and the operation was repeated until the tenth column. • (E) 25 µl of compound was pipetted from the deep-well plate into a 96-well culture plate using a multichannel pipette, and each compound was run in triplicate on the 96-well plate. A 1:4 concentration gradient was established on the 96-well plate, with a final highest concentration of 10,000 nM.
(§4) • (A) 96-well plates were incubated in an incubator for 72 h. The effect of the compounds was observed under an inverted microscope. • (B) 25 µl of CTG solution was added to each well. The plate was incubated on a shaker for 10 minutes and the OD value of each well was read.
(§5) The survival rate ( % Cell Viability) was calculated using the following formula: %Cell Viability = 100% × (Lum_Sample−Lum_LC)/(Lum_HC−Lum_LC) [formula] • Lum_HC: Cell reading of 0.1% DMSO control group • Lum_Sample: Cell readings of compound addition group • Lum_LC: Reading of blank medium • IC50 values were obtained by curve fitting using GraphPad Prism 8 software.

[2] = test system: HCC827; assay: Cell antiproliferative assay (CTG, 72 h); type: cell-based; settings: Homo sapiens, HCC827 (exon 19 deletion)
Experimental: as §1, §2, §3, §4, §5

[3] = test system: PC-9; assay: Cell antiproliferative assay (CTG, 72 h); type: cell-based; settings: Homo sapiens, PC-9 (EGFR exon 19 deletion)
Experimental: as §1, §2, §3, §4, §5

[4] = target: EGFR in BAF3-LTC (Baf3-L858R-T780M-C797S) (Homo sapiens, UniProt P00533, C797S/L858R/T790M); assay: EGFR PROTAC HTRF experiment (total EGFR degradation); type: cell-based; settings: BAF3-LTC cells, 16 hours incubation
[5] = target: EGFR in BAF3-DTC (Baf3-19del-T780M-C797S) (Homo sapiens, UniProt P00533, C797S/DEL746-750/T790M); assay: as above; type: cell-based; settings: BAF3-DTC cells, 16 hours incubation
[6] = Pharmacokinetic test on male SD rats; type: in vivo; settings: gavage (p.o.), 10 mg/kg, plasma; for AUC(0-inf) / AUC(0-t) / Cmax / MRT last / Tmax: rat, po
Experimental: Healthy adult SD rats, male, a total of 3, 6-8 weeks old; Weighing 200-300 grams.
EDTA-Na2 anticoagulant: 11.2 g of EDTA-Na2 was weighted and placed into a reagent bottle. 100 mL of physiological saline was added and the mixture was shaken until completely dissolved. After preparation, the solution was aliquoted into 1.5 mL centrifuge tubes, each containing approximately 20 uL, for use in whole blood sample collection.
Approximately 10 mg of the test sample was accurately weighed. DMSO accounting for 10% of the total volume was added to dissolve the sample. Subsequently, 0.5% MC solvent accounting for 90% of the total volume was slowly added while stirring. The mixture was sonicated and vortexed evenly, and a visually homogeneous preparation solution was obtained, with a concentration of 1 mg/mL. This solution should be freshly prepared immediately before use.
0.2 mL of the sample was pipetted into a 1.5 mL centrifuge tube and stored at -80°C for concentration analysis of the dosing solution.
Animals were kept in rat cages and fasted for no less than 10 hours on the day before the experiment, but were allowed to drink water. The animals were individually weighed and marked on their tails. Prior to dosing, blank blood samples were collected from each animal via the tail vein.
• Administration route: gavage (p.o.) • Dosage concentration: 1mg/ml • Dosage: 10 mg/kg • Dosage volume: 10 mL/kg
Operation process: The rat was grasped with a left hand protected by a bite-resistant glove and held in an upright position. The gavage needle was inserted through the mouth and advanced towards the pharynx. The needle was advanced gently, ensuring no significant resistance was felt. The drug was then injected into the stomach.
At 0.5 h, 1 h, 2 h, 4 h, 6 h, 8 h, 12 h, and 24 h post-dosing, 0.1-0.2 mL of whole blood was collected from each test animal into EDTA-Na2 anticoagulant tubes. The tubes were mixed by inverting 3-4 times. The samples were centrifuged at 2000 × g and 4 °C for 5 minutes. The upper plasma layer was to separated, promptly transferred to -80 °C for storage until analysis. The blood was collected via tail vein.
A quantitative detection method for the test compound was established using a Shimadzu liquid chromatography system and a Triple Quad™ 6500+ AB mass spectrometry (MS) system. This method was used to analyze the concentration of the parent drug in plasma. The variation of the analysis results was controlled using quality control (QC) samples, and the accuracy of the QC samples was required to be within the range of 80%-120%.
The main pharmacokinetic parameters were calculated using the non-compartmental model (NCA) with the WinNonlin Phoenix software. These parameters include: area under the concentration-time curve (AUC(0-t) and AUC(0-∞)), elimination half-life (T1/2), maximum plasma concentration (Cmax), and time to reach maximum plasma concentration (Tmax), etc.

EGFR in BAF3-DTC (Baf3-19del-T780M-C797S), sequence (P00533 with tags, fused parts or gaps DEL746-750/T790M/C797S): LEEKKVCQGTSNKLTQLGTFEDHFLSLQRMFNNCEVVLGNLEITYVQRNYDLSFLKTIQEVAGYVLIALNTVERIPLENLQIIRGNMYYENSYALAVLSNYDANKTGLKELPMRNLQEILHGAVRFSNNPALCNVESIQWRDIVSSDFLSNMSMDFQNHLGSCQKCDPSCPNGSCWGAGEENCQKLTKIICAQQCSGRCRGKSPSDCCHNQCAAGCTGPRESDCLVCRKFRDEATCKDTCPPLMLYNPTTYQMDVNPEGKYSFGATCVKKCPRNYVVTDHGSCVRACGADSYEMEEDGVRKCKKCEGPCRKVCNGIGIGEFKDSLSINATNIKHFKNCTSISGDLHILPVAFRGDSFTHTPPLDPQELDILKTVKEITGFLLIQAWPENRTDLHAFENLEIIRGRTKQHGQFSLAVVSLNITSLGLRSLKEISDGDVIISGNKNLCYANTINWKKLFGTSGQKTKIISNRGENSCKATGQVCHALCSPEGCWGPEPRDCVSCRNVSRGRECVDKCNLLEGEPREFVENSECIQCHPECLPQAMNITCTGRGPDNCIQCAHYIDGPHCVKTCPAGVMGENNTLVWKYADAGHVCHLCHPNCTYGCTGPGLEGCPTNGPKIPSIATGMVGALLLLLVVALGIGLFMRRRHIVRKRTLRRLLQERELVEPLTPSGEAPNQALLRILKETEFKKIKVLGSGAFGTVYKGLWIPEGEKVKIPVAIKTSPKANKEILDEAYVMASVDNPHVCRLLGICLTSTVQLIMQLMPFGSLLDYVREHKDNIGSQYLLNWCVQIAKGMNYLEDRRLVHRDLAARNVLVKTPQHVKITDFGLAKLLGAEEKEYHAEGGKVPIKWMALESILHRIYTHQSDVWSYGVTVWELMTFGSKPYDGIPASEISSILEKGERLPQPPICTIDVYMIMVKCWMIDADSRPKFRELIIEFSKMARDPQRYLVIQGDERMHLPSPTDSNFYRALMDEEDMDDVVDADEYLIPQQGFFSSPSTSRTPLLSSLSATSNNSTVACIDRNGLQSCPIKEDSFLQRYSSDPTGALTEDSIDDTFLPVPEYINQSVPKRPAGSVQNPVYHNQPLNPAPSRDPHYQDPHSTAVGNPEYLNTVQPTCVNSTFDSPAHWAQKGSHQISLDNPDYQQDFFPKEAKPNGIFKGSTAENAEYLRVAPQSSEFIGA
EGFR in BAF3-LTC (Baf3-L858R-T780M-C797S), sequence (P00533 25-1210 T790M/C797S/L858R): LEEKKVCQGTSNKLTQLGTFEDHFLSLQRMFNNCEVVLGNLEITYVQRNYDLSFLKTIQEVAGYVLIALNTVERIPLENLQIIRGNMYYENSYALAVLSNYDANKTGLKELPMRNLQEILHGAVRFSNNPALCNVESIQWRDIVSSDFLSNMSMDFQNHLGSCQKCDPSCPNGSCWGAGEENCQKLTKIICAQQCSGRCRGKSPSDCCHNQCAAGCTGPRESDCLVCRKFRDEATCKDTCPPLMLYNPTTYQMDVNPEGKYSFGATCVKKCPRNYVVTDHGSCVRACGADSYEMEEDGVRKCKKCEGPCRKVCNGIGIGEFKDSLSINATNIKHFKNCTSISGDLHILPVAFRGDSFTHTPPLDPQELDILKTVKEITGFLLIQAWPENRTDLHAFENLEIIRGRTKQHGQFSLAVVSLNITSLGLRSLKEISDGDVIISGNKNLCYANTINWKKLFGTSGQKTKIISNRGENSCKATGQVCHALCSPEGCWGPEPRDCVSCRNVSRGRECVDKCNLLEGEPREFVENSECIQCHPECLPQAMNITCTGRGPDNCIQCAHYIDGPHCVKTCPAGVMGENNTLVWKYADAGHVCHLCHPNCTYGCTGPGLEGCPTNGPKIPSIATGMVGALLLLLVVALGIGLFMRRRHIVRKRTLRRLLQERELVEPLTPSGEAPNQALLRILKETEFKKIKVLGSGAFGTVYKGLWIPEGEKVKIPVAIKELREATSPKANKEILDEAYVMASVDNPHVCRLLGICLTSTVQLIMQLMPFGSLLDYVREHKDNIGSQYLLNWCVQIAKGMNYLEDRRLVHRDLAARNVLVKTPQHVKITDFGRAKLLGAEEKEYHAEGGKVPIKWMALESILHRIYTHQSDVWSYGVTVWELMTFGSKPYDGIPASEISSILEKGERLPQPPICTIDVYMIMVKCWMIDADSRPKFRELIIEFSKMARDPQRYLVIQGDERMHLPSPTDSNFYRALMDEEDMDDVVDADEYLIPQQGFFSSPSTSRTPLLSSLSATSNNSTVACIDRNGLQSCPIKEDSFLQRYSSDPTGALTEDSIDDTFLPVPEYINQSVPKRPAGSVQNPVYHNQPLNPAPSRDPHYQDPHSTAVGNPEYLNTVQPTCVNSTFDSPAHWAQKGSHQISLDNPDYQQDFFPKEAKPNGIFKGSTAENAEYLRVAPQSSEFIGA

| IC50 [1] | IC50 [2] | IC50 [3] | DC50 [4] | Dmax [4] | DC50 [5] | Dmax [5] | HL_ [6] | AUC(0-inf) [6] | AUC(0-t) [6] | Cmax [6] | MRT last [6] | Tmax [6] | Compound |
| --- | --- | --- | --- | --- | --- | --- | --- | --- | --- | --- | --- | --- | --- |
| < 10 nM | 10 to 100 nM | 100 to 1000 nM | 10 to 100 nM | 70 to 100% | 10 to 100 nM | 70 to 100% | 9.28 h | 76300 ng·h/mL | 61600 ng·h/mL | 4060 ng/mL | 10 h | 6 h | CCc1cc(Nc2ncc(Cl)c(Nc3ccccc3C(=O)NC)n2)c(OC)cc1N1CCN(CCN2CCC(c3ccc(NC4CCC(=O)NC4=O)cc3)CC2)CC1 (centres unmarked) [Compound T-023] |
| 10 to 100 nM | 100 to 1000 nM | 100 to 1000 nM | 100 to 1000 nM | 70 to 100% | 10 to 100 nM | 50 to 70% | 2.51 h | 8210 ng·h/mL | 7900 ng·h/mL | 1010 ng/mL | 5.65 h | 4.67 h | CCc1cc(Nc2ncc(Cl)c(Nc3ccccc3C(=O)NC)n2)c(OC)cc1N1CCN(C(=O)CN2CCN(c3ccc(NC4CCC(=O)NC4=O)cc3F)CC2)CC1 (centres unmarked) [Compound T-029] |
| 10 to 100 nM | 100 to 1000 nM | 100 to 1000 nM | 100 to 1000 nM | 50 to 70% | 100 to 1000 nM | 50 to 70% | 2.61 h | 24400 ng·h/mL | 24000 ng·h/mL | 2290 ng/mL | 7.49 h | 2.67 h | CCc1cc(Nc2ncc(Cl)c(Nc3ccccc3C(=O)NC)n2)c(OC)cc1N1CCN(C(=O)CC2(O)CCN(c3ccc(NC4CCC(=O)NC4=O)cc3F)CC2)CC1 (centres unmarked) [Compound T-037] |
| < 10 nM | 100 to 1000 nM | 100 to 1000 nM | 10 to 100 nM | 70 to 100% | 10 to 100 nM | 70 to 100% | 4.39 h | 11300 ng·h/mL | 11000 ng·h/mL | 1020 ng/mL | 7.78 h | 4 h | CCc1cc(Nc2ncc(Cl)c(Nc3ccccc3C(=O)NC)n2)c(OC)cc1N1CCN(C(=O)CN2CCC(c3ccc(NC4CCC(=O)NC4=O)cc3F)CC2)CC1 (centres unmarked) [Compound T-067] |

| Compound | IC50 [1] | IC50 [2] | IC50 [3] | DC50 [4] | Dmax [4] | DC50 [5] | Dmax [5] | HL_ [6] | AUC(0-inf) [6] | AUC(0-t) [6] | Cmax [6] | MRT last [6] | Tmax [6] |
| --- | --- | --- | --- | --- | --- | --- | --- | --- | --- | --- | --- | --- | --- |
| CCc1cc(Nc2ncc(Cl)c(Nc3ccccc3C(=O)NC)n2)c(OC)cc1N1CC2CCC(C1)N2C(=O)CN1CCC(c2ccc(NC3CCC(=O)NC3=O)cc2)CC1 (centres unmarked) [Compound T-109] | 10 to 100 nM | 10 to 100 nM | 10 to 100 nM | 10 to 100 nM | 50 to 70% | 10 to 100 nM | 50 to 70% |  |  |  |  |  |  |
